Tested on: embryogenic tissue masses of sugar beet
Experiment: Repetitive embryogenic culture: optimization of proliferation medium
Assay type: cell-based, Beta vulgaris
Description: These embedded tissues were manually isolated, separated and transferred into liquid medium (MS medium+BAP 0.2 mg/L). The cultures were maintained at constant agitation (100 rpm) in the dark with biweekly changes of the medium. […] Clumps of white embryogenic tissue masses were divided and transferred to fresh medium for further proliferation. […] Part of these tissues was used for the optimization of culture medium.
The optimization of proliferation medium was conducted through several stages. Each stage lasted for two weeks.

[1] = I. MSE, BAP 0.2 mg/L, glutamine 2 mg/L, pH 5.7, carbon source 6%
[2] = III. MSE, sucrose 6%, BAP 0.1 mg/l, pH 5.7, amino acid 2 mg/L
[3] = III. MSE, sucrose 6%, BAP 0.1 mg/l, pH 5.7, amino acid 200 mg/L
[4] = II. MSE, sucrose 6%, glutamine 2 mg/L, pH 5.7, phytohormone 0.1 mg/L

For `OC[C@@H](O)[C@@H](O)[C@H](O)[C@@H](O)CO` [Sorbitol, sorbitol], the “Effect of media on repetitive embryogenic culture (description)” value (“Effect of media” below) [1] was “No growth, total necrosis”.
With `NCC(=O)O` [Glycine, glycine] the “Effect of media” value [2] was “Tissues are light yellow”, the “white embryos, share of tissues” value [2] was 30% and the “Effect of media” value [3] was “Slowly growing, mostly meristematic, vitrified tissues”.
In the case of `OC[C@@H](O)[C@@H](O)[C@H](O)[C@H](O)CO` [Mannitol, mannitol], the “Effect of media” value [1] is reported as “No growth, total necrosis”.
For `C/C(=C\CNc1ncnc2[nH]cnc12)CO` [Zea, zeatin], the “Effect of media” value [4] was “Slowly growing, mostly meristematic, vitrified tissues”.
For `c1coc(CNc2ncnc3[nH]cnc23)c1` [Kin, kinetin], the “Effect of media” value [4] was “Slowly growing, mostly meristematic, vitrified tissues”.
With `NC(=O)CC[C@H](N)C(=O)O` [Glutamine, glutamine] the “colour of vitrified tissues” value was “caused bleaching of vitrified tissues”, the “Effect of media” value [2] was “Slowly growing, dark yellow tissues” and the “Effect of media” value [3] was “Slowly growing, dark yellow tissues”.
With `O=C(O)COc1ccc(Cl)cc1Cl` [2,4D, 2,4-dichlorophenoxyacetic acid] the “colour of vitrified tissues” value was “caused bleaching of vitrified tissues”, the “Effect of media” value (IV. MSE, sucrose 6%, glycine 2 mg/L, pH 5.7, phytohormone 0.1 mg/L) was “Pale yellow tissues with white embryos; red pigmentation is repressed” and the “effect on embryo proliferation” value (presence in the medium) was “negative effect”.
In the case of `OC[C@H]1O[C@@](CO)(O[C@H]2O[C@H](CO)[C@@H](O)[C@H](O)[C@H]2O)[C@@H](O)[C@@H]1O` [Sucrose, sucrose], the “optimization of proliferation medium by modification of sucrose content” value is reported as “did not lead to any further improvement”, the “Effect of media” value [1] is reported as “A lot of repetitive white embryos” and the “Effect of media” value (V. MSE, BAP 0.1 mg/L, glycine 2 mg/L, pH 5.7, sucrose at 3%) is reported as “Necrosis of all tissues”. For the same compound, the “Effect of media” value (V. MSE, BAP 0.1 mg/L, glycine 2 mg/L, pH 5.7, sucrose at 6%) was “A lot of repetitive white embryos”, the “Effect of media” value (V. MSE, BAP 0.1 mg/L, glycine 2 mg/L, pH 5.7, sucrose at 8%) was “Growth is inhibited” and the “Effect of media” value (V. MSE, BAP 0.1 mg/L, glycine 2 mg/L, pH 5.7, sucrose at 10%) was “Growth is inhibited”. The “Effect of media” value (V. MSE, BAP 0.1 mg/L, glycine 2 mg/L, pH 5.7, sucrose at 12%) was “Growth is inhibited”.
